Test results: patent US7524503B2, “Human cytomegalovirus (HCMV) cytotoxic T cell epitopes, polyepitopes compositions comprising same and diagnostic and prophylactic and therapeutic uses therefor” (priority 2001, dated 2009)

Assays:
CD8+ T cells = test: CD4+/CD8+ analysis of 20-mer peptides (intracellular IFN-γ staining or depletion ELISPOT); format: cell-based, human
Protocol: (§1) To determine whether a particular 20-mer peptide contained either a CD4^+- or CD8^+-restricted epitope, or both, CD4^+/CD8^+ cell depletion ELISPOT assays were performed on PBMC from healthy virus carriers. For any one experiment, three populations of cells were used: a) CD8^+-depleted PBMC, b) CD4^+-depleted PBMC, and c) non-depleted PBMC. These populations of cells were tested concurrently with the same peptides in a conventional ELISPOT assay as described herein above. DYNABEADS M-450 (Dynal, Oslo, Norway) that bound specifically to CD4^+- or CD8^+ cells were used to perform the depletion essentially according to manufacturers instructions. Beads were washed twice in cold PBS supplemented with 2% FCS using magnetic isolation. The requisite number of cells was resuspended in cold PBS supplemented with 2% FCS, added to the beads and then incubated at 4° C., in the dark, for 30 mins (CD8^+ beads) or 60 mins (CD4^+ beads). Populations were depleted of CD4^+ or CD8^+ cells using magnetic separation. After depletion, the non-attached cells were removed and washed once in growth medium, counted and used in conventional ELISPOT assay. Depleted cells were used at 1.7×10^5 cells per well and the non-depleted population was used at the standard 2.5×10^5 cells per well. After the depletion step, each respective cell population was assessed for the purity of CD4^+ and CD8^+ T cells by three-colour flow cytometry. Samples of depleted cell populations were stained with anti-CD3 antibody directly conjugated to fluorescein isothiocyanate (FITC), anti-CD4 antibody conjugated with phycoerythrin (PE) fluorochrome, and anti-CD8 antibody conjugated with Tricolor fluorochrome (described below). The percent of CD3^+/CD4^+ cells present within the CD8^+-depleted population and the percent of CD3^+/CD8^+ cells present within the CD4^+-depleted populations were assessed on FACSCalibur cytometer (Becton Dickinson). The purity of each population was greater than 90% and the results from the ELISPOT assays are expressed as the percentage of CD4+ or CD8^+ cells within the depleted populations that responded toward each peptide by producing IFN-γ.
(§2) PBMCs were incubated at 37° C. in RPMI+10% FCS with and without 10 μg/ml peptides for 6 hours. Golgiplug™ (Pharmingen, San Diego, Calif., USA) was added to the samples according to manufacturer's instructions during the second hour of incubation and cells activated with 25 ng/ml phorbol 12-myristidate 13-acetate (PMA; Sigma-Aldrich Co, St. Louis Mo.) and 1 μg/ml iomomycin (Sigma) acted as a positive control. Following the incubation, 1×10^6 cells/sample were washed and resuspended in staining buffer consisting of PBS with GolgiPlug™, 3% FCS and sodium azide. Cells were then stained with FITC conjugated anti-CD3-FITC (UCHT1, Immunotech, Marseille, France), and either Tricolor (TRI) conjugated anti-CD4 (S3.5, Caltag, Burlingame, Calif.) or anti-CD8 (3B5, Caltag) for 30 minutes, 4° C. in the dark. The cells were fixed for 20 min at 4° C. with Cytofix/Cytoperm™ (BD Biosciences) and resuspended in Perm/Wash™ permeabilization buffer (BD Biosciences) according to manufacturers protocol. Fixed cells were stained with phycoerythrin (PE) conjugated anti-human IFN-γ (B27, Pharmingen) for 30 min at 4° C. in the dark. As a negative control, cells were stained with appropriate isotype matched control antibodies. Cells were washed twice in permeabilization buffer and resuspended in staining buffer before analysis by three-colour flow cytometry on a FACSCalibur cytometer (BD Biosciences). All data analysis was carried out using FlowJo software (Tree Star, Inc. San Carlos, CA).
(§3) When using 20-mer peptides to map epitopes by ELISPOT, it is possible that some responses may be MHC class-II restricted, and not necessarily restricted through HLA class I alleles. It was evident throughout this study that some epitopes identified using ELISPOT could not be confirmed using cytotoxicity analysis. […]

CD4+ T cells = test: as above; format: cell-based, human
Protocol: as §1, §2, §3

[1] = test system: PBMC from healthy HCMV seropositive donors; test: IFN-γ ELISPOT assay; format: cell-based, human; settings: for ELISPOT Responses (SFC/10^6 PBMC): peptide 10 μg/ml
Protocol: ELISPOT assay was used to assess whether stimulation of PBMC from a large panel of seropositive donors with HCMV peptides could induce IFN-γ expression in T cells. Briefly, a 96-well nitrocellulose plate (Multiscreen, Millipore) was coated overnight at 4° C. with mouse monoclonal antibody anti-IFN-γ IgG1 (10 μg/ml; Mabtech Nacka, Sweden). The plate was then washed six times in Phosphate Buffered Saline (PBS) and blocked for 1 hour at 37° C. with PBS supplemented with 5% FCS. The blocking solution was removed and PBMC from healthy HCMV seropositive donors were added at a concentration of 2.5×10^5 cells per well in growth medium. These cells were incubated for 18 h at 37° C. in a 5% CO2 atmosphere in the presence of synthetic peptides from HCMV antigens (10 μg/ml). After incubation, the plate was washed three times with PBS supplemented with 0.05% Tween, followed by three washes with PBS alone. Biotinylated anti-IFN-γ (Mabtech, Nacka Sweden) detection antibody was added to each well at a final concentration of 1 μg/ml in PBS. The plates were incubated at room temperature in the dark for 4 h and then washed, as described above. Streptavidin-Alkaline phosphatase (Sigma) was added to each well at a final concentration of 1 μg/ml in PBS and incubated at room temperature in the dark for 2 h. After a final wash with PBS, the substrate, 5-bromo-4-chloro-3-indolyl phosphate and nitro blue tetrazolium, was added to each well and the plates incubated for 30 min at RT. Cells that produced IFN-γ in response to the presence of peptide were detected as purple spots on the nitrocellulose membrane of each well. The spots were counted automatically using a closed-circuit camera (CCD) and ImagePro image analysis software or automated ELISPOT reader (AID, Germany). The T cell precursor frequency for each peptide was based on the total number of PBMC in the well and the number of peptide-specific spots per well, over an average of 3 wells. The number of peptide-specific spots was also calculated by subtracting the negative control values, which consisted of PBMC without peptide (an average of 3 wells), from the test wells.
To determine whether memory CTL responses against the predictive HCMV potential epitopes could be detected in healthy seropositive virus carriers, we used the ELISPOT assay, which allows rapid identification of CTL epitopes without prolonged in vitro culture.
We tested epitopes that were restricted for HLA A1, A3, A24, A26, B7, B8, B27, B35 and B44 in ELISPOT assays, to determine whether memory T cell responses could be detected in healthy HLA-matched virus carriers. PBMC from a cohort of healthy virus carriers (Table 2) were stimulated with individual peptides and the cells that produced IFN-γ were detected. CTL epitopes that were restricted through either HLA A1, A3, A24, A26, B7, B8 or B27, were identified.
Thus, a total of 450 peptides were produced. ELISPOT assays were used to determine whether ex vivo memory T cell responses could be detected in a cohort of 14 healthy virus carriers (Table 2). PBMC were stimulated with individual peptides and the cells that produced IFN-γ were detected.

HLA A2 = biological target: T1, HLA A2 (Homo sapiens, UniProt P04439, D140Y/D185E/D98H/E176V/E277Q/G131W/G231S/I119V/I121R/I166T/I218V/L300P/L318F/N151K/N90K/P208A/P217A/Q86G/Q94H/R138H/R169H/T345S); format: cell-based; settings: HLA A2 on T2 cells; relative increase in HLA expression vs no peptide at 26° C.
T1 construct: endogenous in cells; host or cells: T2 cells

AHELVCSMENTRATKMQVIG
Responding cells (% CD8) (CD8+ T cells; donor seven): 0.01% | Responding cells (% CD4) (CD4+ T cells; donor seven): 0.04% | ELISPOT Responses (SFC/10^6 PBMC) ([1]; donor alpha): 169 SFC/10^6 PBMC | ELISPOT Responses (SFC/10^6 PBMC) ([1]; donor seven): 231 SFC/10^6 PBMC

ALVNAVNKL (human cytomegalovirus pp150 CTL epitope peptide)
MSE (MHC stabilization efficiency) (HLA A2): ++ (++ = 100-199%) | ELISPOT Responses (SFC/10^6 PBMC) ([1]; donor ten): WS(60) SFC/10^6 PBMC

ALVNFLRHL (human cytomegalovirus pp150 CTL epitope peptide)
MSE (MHC stabilization efficiency) (HLA A2): ++ (++ = 100-199%) | ELISPOT Responses (SFC/10^6 PBMC) ([1]; donor ten): WS(57) SFC/10^6 PBMC

CKTMQVNNKGIQIIYTRNHE
Responding cells (% CD8) (CD8+ T cells; donor sixteen): 0.14% | Responding cells (% CD4) (CD4+ T cells; donor sixteen): 0% | ELISPOT Responses (SFC/10^6 PBMC) ([1]; donor sixteen): TC(154) SFC/10^6 PBMC

CLQNALDIL (human cytomegalovirus IE1 CTL epitope peptide)
MSE (MHC stabilization efficiency) (HLA A2): ++ (++ = 100-199%) | ELISPOT Responses (SFC/10^6 PBMC) ([1]; donor delta): SE(490) SFC/10^6 PBMC

FLMEHTMPV (human cytomegalovirus IE2 CTL epitope peptide)
MSE (MHC stabilization efficiency) (HLA A2): ++ (++ = 100-199%) | ELISPOT Responses (SFC/10^6 PBMC) ([1]; donor ten): WS(137) SFC/10^6 PBMC

ILARNLVPM
MSE (MHC stabilization efficiency) (HLA A2): ++ (++ = 100-199%) | ELISPOT Responses (SFC/10^6 PBMC) ([1]; donor delta): SE(170) SFC/10^6 PBMC

KMSVRETLV (human cytomegalovirus pp150 CTL epitope peptide)
MSE (MHC stabilization efficiency) (HLA A2): ++ (++ = 100-199%) | ELISPOT Responses (SFC/10^6 PBMC) ([1]; donor delta): SE(69) SFC/10^6 PBMC

LIEDFDIYV (human cytomegalovirus pp150 CTL epitope peptide)
MSE (MHC stabilization efficiency) (HLA A2): ++ (++ = 100-199%) | ELISPOT Responses (SFC/10^6 PBMC) ([1]; donor ten): WS(88) SFC/10^6 PBMC

LIFGHLPRV (human cytomegalovirus gH CTL epitope peptide)
MSE (MHC stabilization efficiency) (HLA A2): ++ (++ = 100-199%) | ELISPOT Responses (SFC/10^6 PBMC) ([1]; donor delta): SE(84) SFC/10^6 PBMC

LLFRTLLVYL (human cytomegalovirus US3 CTL epitope peptide)
MSE (MHC stabilization efficiency) (HLA A2): +++ (+++ = 200-300%) | ELISPOT Responses (SFC/10^6 PBMC) ([1]; donor seven): 76 SFC/10^6 PBMC | ELISPOT Responses (SFC/10^6 PBMC) ([1]; donor ten): 77 SFC/10^6 PBMC

LLIDPTSGL (human cytomegalovirus pp28 CTL epitope peptide)
MSE (MHC stabilization efficiency) (HLA A2): + (+ = 51-99%) | ELISPOT Responses (SFC/10^6 PBMC) ([1]; donor beta): 77 SFC/10^6 PBMC | ELISPOT Responses (SFC/10^6 PBMC) ([1]; donor seven): 270 SFC/10^6 PBMC

LLNCAVTKL (human cytomegalovirus pp50 CTL epitope peptide)
MSE (MHC stabilization efficiency) (HLA A2): ++ (++ = 100-199%) | ELISPOT Responses (SFC/10^6 PBMC) ([1]; donor delta): SE(59) SFC/10^6 PBMC

LLVLFIVYV (human cytomegalovirus US2 CTL epitope peptide)
MSE (MHC stabilization efficiency) (HLA A2): − (− = 0-50%) | ELISPOT Responses (SFC/10^6 PBMC) ([1]; donor ten): WS(92) SFC/10^6 PBMC

LMLLKNGTV (human cytomegalovirus gH CTL epitope peptide)
MSE (MHC stabilization efficiency) (HLA A2): − (− = 0-50%) | ELISPOT Responses (SFC/10^6 PBMC) ([1]; donor seventeen): CJ(80) SFC/10^6 PBMC

LMNGQQIFL
MSE (MHC stabilization efficiency) (HLA A2): ++ (++ = 100-199%) | ELISPOT Responses (SFC/10^6 PBMC) ([1]; donor fifteen): 217 SFC/10^6 PBMC | ELISPOT Responses (SFC/10^6 PBMC) ([1]; donor ten): 751 SFC/10^6 PBMC

MLNIPSINV [reference compound]
MSE (MHC stabilization efficiency) (HLA A2): ++ (++ = 100-199%) | ELISPOT Responses (SFC/10^6 PBMC) ([1]; donor one): 178 SFC/10^6 PBMC | ELISPOT Responses (SFC/10^6 PBMC) ([1]; donor seven): 65 SFC/10^6 PBMC

RIFAELEGV [reference compound]
MSE (MHC stabilization efficiency) (HLA A2): ++ (++ = 100-199%) | donors recognizing the epitope in ELISPOT ([1]; cohort of eight HLA A2-positive healthy seropositive donors): 5 of the 8 | ELISPOT Responses (SFC/10^6 PBMC) ([1]; donor fifteen): CP(275) SFC/10^6 PBMC | ELISPOT Responses (SFC/10^6 PBMC) ([1]; donor six): 170 SFC/10^6 PBMC | ELISPOT Responses (SFC/10^6 PBMC) ([1]; donor ten): 236 SFC/10^6 PBMC

RIWCLVVCV (human cytomegalovirus gB CTL epitope peptide)
MSE (MHC stabilization efficiency) (HLA A2): − (− = 0-50%) | ELISPOT Responses (SFC/10^6 PBMC) ([1]; donor fifteen): 105 SFC/10^6 PBMC | ELISPOT Responses (SFC/10^6 PBMC) ([1]; donor one): 108 SFC/10^6 PBMC

RLLQTGIHV [reference compound]
MSE (MHC stabilization efficiency) (HLA A2): ++ (++ = 100-199%) | ELISPOT Responses (SFC/10^6 PBMC) ([1]; donor thirteen): BS(57) SFC/10^6 PBMC

SLLSEFCRV (human cytomegalovirus IE1 CTL epitope peptide)
MSE (MHC stabilization efficiency) (HLA A2): +++ (+++ = 200-300%) | ELISPOT Responses (SFC/10^6 PBMC) ([1]; donor ten): WS(471) SFC/10^6 PBMC

TLLVLFIVYV (human cytomegalovirus US2 CTL epitope peptide)
MSE (MHC stabilization efficiency) (HLA A2): − (− = 0-50%) | ELISPOT Responses (SFC/10^6 PBMC) ([1]; donor delta): SE(46) SFC/10^6 PBMC

YILEETSVM (human cytomegalovirus IE1 CTL epitope peptide) [reference compound]
MSE (MHC stabilization efficiency) (HLA A2): ++ (++ = 100-199%) | ELISPOT Responses (SFC/10^6 PBMC) ([1]; donor seven): SB(764) SFC/10^6 PBMC

YLFSLVVLV (human cytomegalovirus US3 CTL epitope peptide)
MSE (MHC stabilization efficiency) (HLA A2): + (+ = 51-99%) | ELISPOT Responses (SFC/10^6 PBMC) ([1]; donor ten): WS(73) SFC/10^6 PBMC
